Values quoted from earlier work in PubChem BioAssay AID1259409 (Chemical Carcinogenesis Research Information System (CCRIS), 2018).

System: rodent chemically induced tumor inhibition, incidence and multiplicity
Assay: CCRIS tumor inhibitor studies

SMILES	tumour outcome (control, treated, inhibition, significance) (Carcinogen: 7,12-DIMETHYLBENZ[A]ANTHRACENE, 57-97-6, Dose [Inhibitor]: 0, 200 UG IN 0.2 ML ACETONE 3/WK 1 HR BEFORE PROMOTER ON 2 D AND ALONE ON 1 D BEGINNING 18 D POST CARCINOGEN AND CONTINU, Route [Inhibitor]: DERMAL, Species: MOUSE, Strain/Sex: CD-1/FEMALE, Target Tissue: Type of Lesion: SKIN: PAPILLOMA, Dose [Carcinogen]: 200 NMOL IN 0.2 ML ACETONE ONCE AND MICE KEPT IN DARKENED ROOM FOR 48 HR POST INITIATION, Promoter: 12-O-TETRADECANOYLPHORBOL-13-ACETATE, 16561-29-8)	tumour outcome (control, treated, inhibition, significance) (Carcinogen: AZOXYMETHANE, 25843-45-2, Dose [Inhibitor]: 0, 200 PPM IN DIET BEGINNING PRIOR TO CARCINOGEN DOSE AND CONTINUING FOR DURATION OF STUDY (STUDY DURATION: 54 WK), Route [Inhibitor]: ORAL, Species: RAT, Strain/Sex: F344/MALE, Target Tissue: Type of Lesion: COLON: ADENOCARCINOMA, Dose [Carcinogen]: 15 MG/KG 1/WK FOR 2 WK, Promoter: NONE USED)	tumour outcome (control, treated, inhibition, significance) (Carcinogen: AZOXYMETHANE, 25843-45-2, Dose [Inhibitor]: 0, 200 PPM IN DIET BEGINNING PRIOR TO CARCINOGEN DOSE AND CONTINUING FOR DURATION OF STUDY (STUDY DURATION: 54 WK), Route [Inhibitor]: ORAL, Species: RAT, Strain/Sex: F344/MALE, Target Tissue: Type of Lesion: COLON: ADENOMA, Dose [Carcinogen]: 15 MG/KG 1/WK FOR 2 WK, Promoter: NONE USED)	tumour outcome (control, treated, inhibition, significance) (Carcinogen: AZOXYMETHANE, 25843-45-2, Dose [Inhibitor]: 0, 200 PPM IN DIET BEGINNING PRIOR TO CARCINOGEN DOSE AND CONTINUING FOR DURATION OF STUDY (STUDY DURATION: 54 WK), Route [Inhibitor]: ORAL, Species: RAT, Strain/Sex: F344/MALE, Target Tissue: Type of Lesion: SMALL INTESTINE: ADENOCARCINOMA, Dose [Carcinogen]: 15 MG/KG 1/WK FOR 2 WK, Promoter: NONE USED)	tumour outcome (control, treated, inhibition, significance) (Carcinogen: AZOXYMETHANE, 25843-45-2, Dose [Inhibitor]: 0, 200 PPM IN DIET BEGINNING PRIOR TO CARCINOGEN DOSE AND CONTINUING FOR STUDY DURATION (STUDY DURATION: 54 WK), Route [Inhibitor]: ORAL, Species: RAT, Strain/Sex: F344/MALE, Target Tissue: Type of Lesion: SMALL INTESTINE: ADENOMA, Dose [Carcinogen]: 15 MG/KG 1/WK FOR 2 WK, Promoter: NONE USED)	tumour outcome (control, treated, inhibition, significance) (Carcinogen: AZOXYMETHANE, 25843-45-2, Dose [Inhibitor]: 0, 400 PPM IN DIET BEGINNING PRIOR TO CARCINOGEN DOSE AND CONTINUING FOR DURATION OF STUDY (STUDY DURATION: 54 WK), Route [Inhibitor]: ORAL, Species: RAT, Strain/Sex: F344/MALE, Target Tissue: Type of Lesion: COLON: ADENOCARCINOMA, Dose [Carcinogen]: 15 MG/KG 1/WK FOR 2 WK, Promoter: NONE USED)	tumour outcome (control, treated, inhibition, significance) (Carcinogen: AZOXYMETHANE, 25843-45-2, Dose [Inhibitor]: 0, 400 PPM IN DIET BEGINNING PRIOR TO CARCINOGEN DOSE AND CONTINUING FOR DURATION OF STUDY (STUDY DURATION: 54 WK), Route [Inhibitor]: ORAL, Species: RAT, Strain/Sex: F344/MALE, Target Tissue: Type of Lesion: COLON: ADENOMA, Dose [Carcinogen]: 15 MG/KG 1/WK FOR 2 WK, Promoter: NONE USED)	tumour outcome (control, treated, inhibition, significance) (Carcinogen: AZOXYMETHANE, 25843-45-2, Dose [Inhibitor]: 0, 400 PPM IN DIET BEGINNING PRIOR TO CARCINOGEN DOSE AND CONTINUING FOR DURATION OF STUDY (STUDY DURATION: 54 WK), Route [Inhibitor]: ORAL, Species: RAT, Strain/Sex: F344/MALE, Target Tissue: Type of Lesion: SMALL INTESTINE: ADENOCARCINOMA, Dose [Carcinogen]: 15 MG/KG 1/WK FOR 2 WK, Promoter: NONE USED)	tumour outcome (control, treated, inhibition, significance) (Carcinogen: AZOXYMETHANE, 25843-45-2, Dose [Inhibitor]: 0, 400 PPM IN DIET BEGINNING PRIOR TO CARCINOGEN DOSE AND CONTINUING FOR DURATION OF STUDY (STUDY DURATION: 54 WK), Route [Inhibitor]: ORAL, Species: RAT, Strain/Sex: F344/MALE, Target Tissue: Type of Lesion: SMALL INTESTINE: ADENOMA, Dose [Carcinogen]: 15 MG/KG 1/WK FOR 2 WK, Promoter: NONE USED)	tumour outcome (control, treated, inhibition, significance) (Carcinogen: N-METHYL-N-NITROSOUREA, 684-93-5, Dose [Inhibitor]: 0, 0.1% IN DIET FOR DURATION OF STUDY BEGINNING 1 WK PRIOR TO CARCINOGEN DOSE (STUDY DURATION: 187 D), Route [Inhibitor]: ORAL, Species: RAT, Strain/Sex: SPRAGUE-DAWLEY/FEMALE, Target Tissue: Type of Lesion: MAMMARY GLAND: CARCINOMA, Dose [Carcinogen]: 50 MG/KG ONCE AT 50 D OF AGE, Promoter: NONE USED)	tumour outcome (control, treated, inhibition, significance) (Carcinogen: N-METHYL-N-NITROSOUREA, 684-93-5, Dose [Inhibitor]: 0, 0.2% IN DIET FOR 2 WK BEGINNING 1 WK PRIOR TO CARCINOGEN DOSE (STUDY DURATION: 187 D), Route [Inhibitor]: ORAL, Species: RAT, Strain/Sex: SPRAGUE-DAWLEY/FEMALE, Target Tissue: Type of Lesion: MAMMARY GLAND: CARCINOMA, Dose [Carcinogen]: 50 MG/KG ONCE AT 50 D OF AGE, Promoter: NONE USED)	tumour outcome (control, treated, inhibition, significance) (Carcinogen: N-METHYL-N-NITROSOUREA, 684-93-5, Dose [Inhibitor]: 0, 0.2% IN DIET FOR DURATION OF STUDY BEGINNING 1 WK POST CARCINOGEN DOSE (STUDY DURATION: 180 D), Route [Inhibitor]: ORAL, Species: RAT, Strain/Sex: SPRAGUE-DAWLEY/FEMALE, Target Tissue: Type of Lesion: MAMMARY GLAND: CARCINOMA, Dose [Carcinogen]: 50 MG/KG ONCE AT 50 D OF AGE, Promoter: NONE USED)	tumour outcome (control, treated, inhibition, significance) (Carcinogen: N-METHYL-N-NITROSOUREA, 684-93-5, Dose [Inhibitor]: 0, 0.2% IN DIET FOR DURATION OF STUDY BEGINNING 1 WK PRIOR TO CARCINOGEN DOSE (STUDY DURATION: 187 D), Route [Inhibitor]: ORAL, Species: RAT, Strain/Sex: SPRAGUE-DAWLEY/FEMALE, Target Tissue: Type of Lesion: MAMMARY GLAND: CARCINOMA, Dose [Carcinogen]: 50 MG/KG ONCE AT 50 D OF AGE, Promoter: NONE USED)	tumour outcome (control, treated, inhibition, significance) (Carcinogen: URETHANE, 51-79-6, Dose [Inhibitor]: 0.05 UMOL/G BW GIVEN AS 7 INJECTIONS 1/6 HR FOR 36 HR AFTER CARCINOGEN TREATMENT FOLLOWED BY 5 MO OBSERVATION PERIOD (ST, Route [Inhibitor]: INTRAPERITONEAL, Species: MOUSE, Strain/Sex: ICR/FEMALE, Target Tissue: Type of Lesion: LUNG: PAPILLARY ADENOMA, Dose [Carcinogen]: 0.1 MG/G BW ONCE AT 25 D OF AGE, Promoter: NONE USED)
C[C@]12CCCCC1=CC[C@@H]1[C@@H]2CC[C@]2(C)C(=O)[C@H](F)C[C@@H]12	92%, 70%, 24%, not calculated	72%, 50%, 31%, p<0.05	14%, 8%, 43%, not calculated	50%, 28%, 44%, not calculated	3%, 0%, 100%, not calculated	72%, 61%, 15%, not calculated	14%, 6%, 57%, not calculated	50%, 17%, 66%, p<0.01	3%, 0%, 100%, not calculated	100%, 100%, 0%, not significant	100%, 100%, 0%, not significant	100%, 95%, 5%, not significant	100%, 100%, 0%, not significant	–
Cn1cnc2c1c(=O)[nH]c(=O)n2C	–	–	–	–	–	–	–	–	–	–	–	–	–	31/59 (53%), 11/56 (20%), 62%, p<0.001
